# Assay results: patent publication US8202904B2, “α-cyano-4-fluoro-3-phenoxybenzyl meta-halo pyrethrate, a process for preparing the same and the uses thereof” (East China Normal University, priority 2007, dated 2012)
# Like-named read-outs stand apart in the source and are kept apart here.
# Assays:
# [1] = tested on: Culex pipiens pallens fourth instar wiggler; assay: Killing effect on wiggler, WHO immersing method, LC50; assay type: in vivo; conditions: for LC50: Culex pipiens pallens fourth instar wiggler, immersing method, mortality after 24 hours, 26±1° C.; for Relative toxicity: from wiggler LC50, Cypermethrin = 100
# Method: The following pyrethrates were tested as representatives according to the method recommended by the World Health Organization (WHO) (Zongbing ZHANG, the assay of toxicity of insecticides, the Science Press, 1988), the commonly used testing breed, Culex pipiens pallens fourth instar wiggler is used as a subject for biological assay, test temperature: 26±1° C., humidity: 70±10%; immersing method: a solution of a certain amount the compound to be tested in acetone was mixed evenly with pure water in the gradually decreasing concentration of 500, 250, 100, 50, 25, 12.5, 6.25, 3.125, 1, 0.5, 0.25, 0.1, 0.05, 0.025, 0.01, 0.005, 0.0025, 0.0001 mg/L, and the mortality of wiggler after 24 hours was calculated and LC50 was calculated to preliminarily evaluate the insecticidal activity. The results were shown in Table I. Compound 1-5 are representative examples of the compound of formula (I) of the present invention: the compounds involved in preparation Example 1-5 were prepared;
# At the same time, their relative toxicities were compared with those of Cypermethrin, and Deltamethrin.
# [2] = tested on: Mythimna separata; assay: Killing effect on Mythimna separata, dipped corn leaves fed to larvae; assay type: in vivo; conditions: after 48 hours
# Method: The killing effect on Mythimna separata was tested using Compounds 2 and 3, which are representative examples of the compound of formula (I) of the present invention, Compound 9, polyfluorobenzyl meta-halo pyrethrate, which has the highest insecticidal activity to Mythimna separata as a control example.
# Mythimna separata: test temperature: 26±1° C., humidity: 70±10%; the corn leaves was immersed, and then were taken out after they were dipped in a liquor in dimethyl sulfoxide for 5 seconds. The liquor was dried in the shade and the corn leaves were cut away to feed larvae at the beginning of the third instar. Each treatment was done in triplicate. The number of killed insects was counted after 48 hours to calculate the mortality.
# [3] = tested on: Aphis medicaginis kock; assay: Killing effect on aphids, immersion; assay type: in vivo; conditions: aphids, after 24 hours
# Method: The killing effect on aphids was tested using Compound 2 and 3, which are representative examples of the compound of formula (I) of the present invention, Compound 9 as a control example. Aphis medicaginis kock; test temperature: 26±1° C., humidity: 70±10%; test method: immersion; adult insects together with bean sprouts were immersed in a liquor in dimethyl sulfoxide for 5 seconds, after which the bean sprouts were heeled in a solid support. Each treatment was done in triplicate. The number of the killed insects was checked after 24 hours to calculate the mortality.
# [4] = tested on: Tetrangychus cinnabarinus; assay: Killing effect on Tetrangychus cinnabarinus, immersion; assay type: in vivo; conditions: after 24 hours
# Method: The killing effect on acarids was tested using Compound 2 and 3, which are representative examples of the compound of formula (I) of the present invention, Compound 9 as a control example. Tetrangychus cinnabarinus, test temperature: 26±1° C. humidity: 70±10%; test method: immersion; adult insects together with horsebean leaves were immersed in a liquor in dimethyl sulfoxide for 5 seconds, after which the leaves were inserted into a small bottle. Each treatment was done in triplicate. The number of the killed insects was checked after 24 hours to calculate the mortality.
# [5] = tested on: Musca domestica; assay: Striking down effect on Musca domestica, liquid film contact method; assay type: in vivo; set-up: unit not given here; conditions: Musca domestica adults, film from 1 ml of 0.1% liquor in acetone in 500 ml conical flask
# Method: The striking down effect on Musca domestica was tested using Compounds 2 and 3, which are representative examples of the compound of formula (I) of the present invention, Compound 9 as a control example. Musca domestica, an in-house cultured sensitive strain, the adult insects in eclosion for 3-5 days were used, and the male and female insects are half and half. Test temperature: 26±1° C., humidity: 70±10%, test method: liquid film contact method. 1 ml of 0.1% liquor in acetone was evenly coated on a 500 ml conical flask to form a film. After the film was dry, 20˜25 adult insects were put into the flask, and the striking down time and striking down number were observed, and each treatment was done in triplicate.
# [6] = tested on: Blattela germanica; assay: Striking down effect on cockroaches, liquid film contact method; assay type: in vivo; set-up: unit not given here; conditions: Blattela germanica male adults, film at 54 mg/m^2, 22±1° C.
# Method: The striking down effect on Blattela germanica was tested using Compound 2 and 3, which are representative examples of the compound of formula (I) of the present invention, Compound 9 as a control example. Blattela germanica, an in-house cultured sensitive strain, male adult insects were used. Test temperature: 22±1° C., test method: liquid film contact method. A liquor in acetone was evenly coated at the amount of 54 mg/m^2 on the inner wall of a wild mouth bottle to form a film. After the film was dry, 10 adult insects were put into each bottle, and the striking down time and striking down number were observed, and each treatment was done in triplicate.
# [7] = Stability test, ultraviolet lamp irradiation, gas chromatography analysis; assay type: physicochemical; conditions: 0.15 mmol in 50 ml cyclohexane, 500 W ultraviolet lamp, 30 min
# Method: 0.15 mmol of the compound of Preparation Example 2 (cis-α-cyano-3-phenoxy-4-fluoro-benzyl-2,2-dimethyl-3-(2-chlorovinyl)cyclopropane carboxylate) and 0.15 mmol of the corresponding dichloride compound (cis-α-cyano-3-phenoxy-4-fluoro-benzyl-2,2-dimethyl-3-(2,2-dichlorovinyl)cyclopropane carboxylate) were added to two vessels separately, to which 50 ml of cyclohexane were added separately. They were irradiated by a 500 W ultraviolet lamp for 30 min respectively. Then to each of the vessels were added 0.15 mmol of n-hexane as an internal standard for gas chromatography analysis. […] The photodegradation rate of the former is 1.9 times of that of the latter. That is to say, if the same amounts were used, the residue of the former in the environment is lower than that of the latter.
smiles,measurement,setting,value
"CC1(C)C(C=CCl)C1C(=O)OC(C#N)c1ccc(F)c(Oc2ccccc2)c1 (mixture of isomers) [Compound 1, cis/trans-α-cyano-3-phenoxy-4-fluoro-benzyl-2,2-dimethyl-3-(E/Z-2-chlorovinyl)cyclopropane carboxylate]",LC50,[1],0.00055 µg/mL
same,Relative toxicity,[1],1927
"CC1(C)[C@@H](C=CCl)[C@@H]1C(=O)OC(C#N)c1ccc(F)c(Oc2ccccc2)c1 (relative stereo) [Compound 3, Trans-α-cyano-3-phenoxy-4-fluoro-benzyl-2,2-dimethyl-3-(2-chlorovinyl)cyclopropane carboxylate]",LC50,[1]; read-out: LC50,0.0055 µg/mL
same,Relative toxicity,[1],193
same,mortality at 0.5 ppm,"[2]; 0.5 ppm, read-out: The average mortality",0%
same,mortality at 1 ppm,"[2]; 1 ppm, read-out: The average mortality",0%
same,mortality at 5 ppm,"[2]; 5 ppm, read-out: The average mortality",100%
same,mortality at 50 ppm,"[2]; 50 ppm, read-out: The average mortality",100%
same,mortality at 500 ppm,"[2]; 500 ppm, read-out: The average mortality",100%
same,mortality at 0.5 ppm,"[3]; Aphis medicaginis, 0.5 ppm, read-out: The average mortality",0%
same,mortality at 1 ppm,"[3]; Aphis medicaginis, 1 ppm, read-out: The average mortality",66.3%
same,mortality at 5 ppm,"[3]; Aphis medicaginis, 5 ppm, read-out: The average mortality",83.7%
same,mortality at 50 ppm,"[3]; Aphis medicaginis, 50 ppm, read-out: The average mortality",100%
same,mortality at 500 ppm,"[3]; Aphis medicaginis, 500 ppm, read-out: The average mortality",100%
same,The average mortality,[4]; 1 mg/L,0%
same,The average mortality,[4]; 5 mg/L,0%
same,The average mortality,[4]; 50 mg/L,7.8%
same,The average mortality,[4]; 500 mg/L,100%
same,KT50,[5],5.80
same,KT50,[6],8.14
"CC1(C)[C@H](/C=C/F)[C@@H]1C(=O)OC(C#N)c1ccc(F)c(Oc2ccccc2)c1 (relative stereo) [Compound 5, cis-α-cyano-3-phenoxy-4-fluoro-benzyl-2,2-dimethyl-3-(E-2-fluorovinyl)cyclopropane carboxylate]",LC50,[1]; read-out: LC50,0.00061 µg/mL
same,Relative toxicity,[1],1740
"CC1(C)[C@H](/C=C/Cl)[C@@H]1C(=O)OCc1c(F)c(F)cc(F)c1F (relative stereo) [Compound 6, cis-2,3,5,6-tetrafluoro-4-benzyl-3-(E-2-chlorovinyl)-2,2-dimethylcyclopropane carboxylate]",LC50,[1],0.4810 µg/mL
same,Relative toxicity,[1],2
"Cc1c(F)c(F)c(COC(=O)[C@H]2[C@@H](/C=C/Cl)C2(C)C)c(F)c1F (relative stereo) [Compound 7, cis-2,3,5,6-tetrafluoro-4-methyl benzyl-3-(E-2-chlorovinyl)-2,2-dimethylcyclopropane carboxylate]",LC50,[1],0.0741 µg/mL
same,Relative toxicity,[1],14
"CC1(C)[C@H](/C=C/Cl)[C@@H]1C(=O)OCc1c(F)c(F)c(F)c(F)c1F (relative stereo) [Compound 8, cis-pentafluorobenzyl-3-(E-2-chlorovinyl)-2,2-dimethyl cyclopropane carboxylate]",LC50,[1],0.0801 µg/mL
same,Relative toxicity,[1],13
"CC1(C)[C@@H](C=CCl)[C@@H]1C(=O)OCc1c(F)c(F)cc(F)c1F (relative stereo) [Compound 9, trans-2,3,5,6-tetrafluoro-4-benzyl-3-(2-chlorovinyl)-2,2-dimethylcyclopropane carboxylat, reference compound]",LC50,[1],0.2492 µg/mL
same,Relative toxicity,[1],4
same,The average mortality,[2]; 0.5 ppm,0%
same,The average mortality,[2]; 1 ppm,0%
same,The average mortality,[2]; 5 ppm,0%
same,The average mortality,[2]; 50 ppm,100%
same,The average mortality,[2]; 500 ppm,100%
same,The average mortality,[3]; 0.5 ppm,0%
same,The average mortality,[3]; 1 ppm,0%
same,The average mortality,[3]; 5 ppm,0%
same,The average mortality,[3]; 50 ppm,18.8%
same,The average mortality,[3]; 500 ppm,100%
same,The average mortality,[4]; 1 mg/L,0%
same,The average mortality,[4]; 5 mg/L,0%
same,The average mortality,[4]; 50 mg/L,0%
same,The average mortality,[4]; 500 mg/L,0%
same,KT50,[5],9.51
same,KT50,[6],12.0
"Cc1c(F)c(F)c(COC(=O)[C@H]2[C@H](C=CCl)C2(C)C)c(F)c1F (relative stereo) [Compound 10, trans-2,3,5,6-tetrafluoro-4-methylbenzyl-3-(2-chlorovinyl)-2,2-dimethylcyclopropane carboxylate]",LC50,[1]; read-out: LC50,0.0578 µg/mL
same,Relative toxicity,[1],18
"CC1(C)[C@@H](C=CCl)[C@@H]1C(=O)OCc1c(F)c(F)c(F)c(F)c1F (relative stereo) [Compound 11, trans-pentafluorobenzyl-3-(2-chlorovinyl)-2,2-dimethyl cyclopropane carboxylate]",LC50,[1],0.2041 µg/mL
same,Relative toxicity,[1],5
"CC1(C)[C@H](C=CBr)[C@@H]1C(=O)OC(C#N)c1cccc(Oc2ccccc2)c1 (relative stereo) [Compound 12, cis-α-cyano-3-phenoxybenzyl-2,2-dimethyl-3-(2-bromovinyl)cyclopropane carboxylate]",LC50,[1]; read-out: LC50,0.0108 µg/mL
same,Relative toxicity,[1],98
"CC1(C)[C@@H](C=CCl)[C@@H]1C(=O)OC(C#N)c1cccc(Oc2ccccc2)c1 (relative stereo) [Compound 13, trans-α-cyano-3-phenoxybenzyl-2,2-dimethyl-3-(2-chlorovinyl)cyclopropane carboxylate]",LC50,[1]; read-out: LC50,0.0527 µg/mL
same,Relative toxicity,[1],20
"CC1(C)[C@H](C=C(Cl)Cl)[C@@H]1C(=O)OC(C#N)c1ccc(F)c(Oc2ccccc2)c1 (relative stereo) [corresponding dichloride compound, cis-α-cyano-3-phenoxy-4-fluoro-benzyl-2,2-dimethyl-3-(2,2-dichlorovinyl)cyclopropane carboxylate, reference compound]",degraded by light,[7],14%
"CC1(C)[C@H](C=CBr)[C@H]1C(=O)OC(C#N)c1ccc(F)c(Oc2ccccc2)c1 (stereo partly drawn) [Compound 4, (1R)-Trans-α-cyano-3-phenoxy-4-fluoro-benzyl-2,2-dimethyl-3-(2-bromovinyl)cyclopropane carboxylate]",LC50,[1]; read-out: LC50,0.0027 µg/mL
same,Relative toxicity,[1],393
CC1(C)C(C=C(Cl)Cl)C1C(=O)OC(C#N)c1cccc(Oc2ccccc2)c1 (stereo not shown) [Cypermethrin],LC50,[1]; read-out: LC50,0.0106 µg/mL
same,Relative toxicity,[1],100
CC1(C)[C@H](C(=O)O[C@H](C#N)c2cccc(Oc3ccccc3)c2)[C@@H]1C=C(Br)Br [Deltamethrin],LC50,[1]; read-out: LC50,0.0012 µg/mL
same,Relative toxicity,[1],883
